Assay results taken from patent US8293979B2, “Weed controller metabolism proteins, genes, thereof and use of the same” (Sumitomo Chemical Company, Limited, priority 2001, dated 2012).

How the values were obtained:
[1] = tested on: present invention protein (A24); assay: Metabolism of compounds by the present invention protein (A24), reaction solution, HPLC; type: in vitro ADME, Streptomyces rutgersensis IFO 15875T; conditions: 12.5 ppm of compound, components A, B, C, 20 μl supernatant fraction of Example 65(2), 30° C. for 10 minutes
[2] = tested on: present invention protein (A15); assay: Metabolism of compounds by the present invention protein (A15), reaction solution, HPLC; type: in vitro ADME, Streptomyces olivochromogenes IFO 12444; conditions: 5 ppm of compound, components A, B, C, 20 μl supernatant fraction of Example 40(2), 30° C. for 10 minutes
[3] = tested on: present invention protein (A18); assay: Metabolism of compounds by the present invention protein (A18), reaction solution, HPLC; type: in vitro ADME, Streptomyces achromogenes IFO 12735; conditions: 12.5 ppm of compound, components A, B, C, 20 μl supernatant fraction of Example 53(2), 30° C. for 10 minutes
[4] = tested on: present invention protein (A3); assay: Metabolism of compounds by the present invention protein (A3), reaction solution, HPLC; type: in vitro ADME, Streptomyces testaceus ATCC21469; conditions: 5 ppm of compound, components A, B, C, 20 μl supernatant fraction of Example 12(2), 30° C. for 10 minutes
[5] = tested on: present invention protein (A17); assay: Metabolism of compounds by the present invention protein (A17), reaction solution, HPLC; type: in vitro ADME, Streptomyces griseus ATCC 10137; conditions: 12.5 ppm of compound, components A, B, C, 20 μl supernatant fraction of Example 51(2), 30° C. for 10 minutes
[6] = tested on: present invention protein (A12); assay: Detection of the ability to convert compound (II) to compound (III), E. coli pKSN1618F extract; type: in vitro ADME, Streptomyces tsusimaensis IFO 13782; conditions: 3 ppm of compound (II) labeled with 14C, components A, B, 10 minutes at 30° C.
Experimental: (§1) Reaction solutions of 30 μl were prepared and maintained for 10 minutes at 30° C. The reaction solutions consisted of a 0.1M potassium phosphate buffer (pH7.0) containing 3 ppm of compound (II) labeled with ^14C, 2 mM of β-NADPH (hereinafter, referred to as “component A”) (Oriental Yeast Company), 2 mg/ml of a ferredoxin derived from spinach (hereinafter referred to as “component B”) (Sigma Company), 0.1 U/ml of ferredoxin reductase (hereinafter, referred to as “component C”) (Sigma Company) and 23 μl of the supernatant fraction recovered in Example 32(2). Similarly to Example 4(3), the reaction solutions after the maintenance were extracted with ethyl acetate and the extracted layers were TLC analyzed. […] A spot corresponding to compound (III) was detected from the reaction solution containing E. coli pKSN849AF extract. In contrast, such a spot was not detected from the reaction solution containing E. coli pKSN2 extract.
(§2) Reaction solutions of 30 μl were prepared and maintained for 10 minutes at 30° C. […] The reaction solutions after the maintenance were extracted with ethyl acetate and the extracted layers were TLC analyzed. […] A spot corresponding to compound (III) was detected from the reaction solution containing E. coli pKSN1618F extract. In contrast, such a spot was not detected from the reaction solution containing E. coli pKSN2 extract.

[7] = tested on: present invention protein (A15); assay: Detection of the ability to convert compound (II) to compound (III), E. coli pKSN1555AF extract; type: in vitro ADME, Streptomyces olivochromogenes IFO 12444; conditions: 3 ppm of compound (II) labeled with 14C, components A, B, 10 minutes at 30° C.
Experimental: as §1
as §2, with “pKSN1555AF” for “pKSN1618F”

[8] = tested on: present invention protein (A25); assay: Detection of the ability to convert compound (II) to compound (III), E. coli pKSN1609F extract; type: in vitro ADME, Streptomyces steffisburgensis IFO 13446T; conditions: 3 ppm of compound (II) labeled with 14C, components A, B, 10 minutes at 30° C.
Experimental: as §1
as §2, with “Similarly to Example 32(3), reaction” for “Reaction”, “pKSN1609F” for “pKSN1618F”

[9] = tested on: present invention protein (A13); assay: Detection of the ability to convert compound (II) to compound (III), E. coli pKSN474F extract; type: in vitro ADME, Streptomyces thermocoerulesces IFO 14273t; conditions: 3 ppm of compound (II) labeled with 14C, components A, B, 10 minutes at 30° C.
Experimental: as §1
as §2, with “pKSN474F” for “pKSN1618F”

[10] = tested on: present invention protein (A20); assay: Detection of the ability to convert compound (II) to compound (III), E. coli pKSN1525F extract; type: in vitro ADME, Streptomyces lanatus IFO 12787T; conditions: 3 ppm of compound (II) labeled with 14C, components A, B, 10 minutes at 30° C.
Experimental: as §1
as §2, with “Similarly to Example 32(3), reaction” for “Reaction”, “pKSN1525F” for “pKSN1618F”

Row | Compound | concentration of the compound detected from metabolism solution (A24) compared to control solution (A24) [1] | concentration of the compound detected from metabolism solution (A15) compared to control solution (A15) [2] | concentration of the compound detected from metabolism solution (A18) compared to control solution (A18) [3] | concentration of the compound detected from metabolism solution (A3) compared to control solution (A3) [4] | concentration of the compound detected from metabolism solution (A17) compared to control solution (A17) [5] | spot corresponding to compound (III) labeled with 14C (TLC) [6] | spot corresponding to compound (III) labeled with 14C (TLC) [7] | spot corresponding to compound (III) labeled with 14C (TLC) [8] | spot corresponding to compound (III) labeled with 14C (TLC) [9] | spot corresponding to compound (III) labeled with 14C (TLC) [10]
1 | Cn1c(C(F)(F)F)cc(=O)n(-c2cc(Oc3cccnc3OCC(=O)O)c(Cl)cc2F)c1=O [compound (XII)] | lower | lower | lower | lower | lower | – | – | – | – | –
2 | C[C@@H](Oc1cc(-n2c(=O)cc(C(F)(F)F)n(C)c2=O)c(F)cc1Cl)C(=O)O [compound (II)] | – | – | – | – | – | detected | detected | detected | detected | detected
3 | Cn1c(C(F)(F)F)cc(=O)n(-c2cc(Oc3ccccc3OCC(=O)O)c(Cl)cc2F)c1=O [compound (XIII)] | – | lower | lower | lower | lower | – | – | – | – | –
